This note sets out measurements from patent US20200306295A1, “METHOD AND DEVICE FOR ANNIHILATION OF Staphylococcus aureus” (priority 2017, published 2020).

Converted amounts (≈) assume the structure as drawn. “Also recorded” adds a separate entry of the source. Where two headings read alike, the source gives them in different places.

Assay [1] has as its system stationary-phase MRSA. It counts as cell-based, S. aureus. The following applies: for fold reduction of lowest concentration completely inhibiting MRSA growth within 18 hours, with laser treatment: 16 min laser stated for tetracycline, 2-fold or larger is synergy (FICI). As for the experimental part:
To monitor the response of bacteria to laser treatment alone, antibiotic treatment alone, or their combinations, bacterial growth was continuously monitored overnight (18 hours with an interval of 30 min at 37° C.) by measuring optical density at 600 nm (OD600). Depending on the specific assay applied, the bacterial cells were suspended in 100 or 200 μl TSB medium under different treatment schemes (antibiotic alone, laser treatment alone, antibiotic plus laser treatment) with a final concentration of ˜10^5 CFU/ml. Bacterial growth was defined as OD600≥0.1.
Stationary-phase bacterial cells was washed and resuspended in 1×PBS at its original concentration. […] The treated droplet was collected and resuspended into 5 ml TSB (1:1000 dilution) for each group. Corresponding groups without laser treatment were also conducted for comparison. The bacterial suspensions were transferred to a 96-well plate with antibiotics supplemented into with the first row of the 96-well plate for eight two-fold serial dilution starting at a desired antibiotic concentration (e.g. ofloxacin: 2 μg/ml). After serial dilution, bacterial growth within the same well plate was monitored by a plate reader for 18 hours (OD600, 37° C.). The checkerboard assay was used for groups with laser treatment alone or laser plus antibiotic treatment. Two independent experiments of checkerboard assay were performed for each antibiotic with or without laser treatment. Based on the readout of OD600, a heat map was created to evaluate the antibiotic potentiation or synergistic effect enabled by STX photolysis.
Based on the checkerboard results, the fractional inhibitory concentration index (FICI), a synergy evaluation method between two antibiotics, was calculated as below: FICI=MIC of antibiotic A in combination/MIC of antibiotic A alone+MIC of antibiotic B in combination/MIC of antibiotic B alone. The interaction of the two antibiotics was defined as below: synergy if FICI≤0.5, no interaction if 0.5<FICI≤4, antagonism if FICI>4^46. […] Considering this reason, the synergy calculation was simplified as below: FICI=MIC of antibiotic A in combination with laser treatment/MIC of antibiotic A alone with synergy defined by FICI≤0.5.

Assay [2] concerns MRSA. As to the kind of experiment: microbe, parasite or virus in culture. It counts as cell-based, S. aureus. The following applies: for resistance development with laser treatment: 48-day serial passage, sub-MIC antibiotic with 10 min laser; for MIC: Staphylococcus aureus, MRSA. As for the experimental part: To understand whether laser treatment could cause genotypic or phenotypic change in MRSA, and whether STX photolysis could reduce the resistance development for conventional antibiotics, a serial passage study for each treatment scenario was conducted. The initial generation (Day 1) used in this study was stationary-phase MRSA. The sample was prepared, washed and resuspended in 1×PBS at its original concentration. An aliquot (5 μl) of the MRSA suspension was transferred onto a glass cover slide as a droplet of ˜5 mm in diameter with or without 10 min laser treatment (1 cm diameter illumination area, 120 mW). The droplets were then collected and resuspended into 5 ml of TSB medium (1:1000 dilution) with an estimated cell concentration of 10^5 CFU/ml. To study resistance development or selection induced by laser treatment alone, three groups were included: a group without laser treatment (SPO), a group with laser treatment (SPL1), and another independent group with laser treatment as a duplicate (SPL2). To study resistance development induced by antibiotic treatment alone and laser plus antibiotic treatment, three groups were included for each antibiotic: antibiotic alone-treated group (SPA0), laser plus antibiotic-treated group (SPLA1), and another laser plus antibiotic-treated group as another independent serial passage (SPLA2). For SPO, SPL1, and SPL2, 200 μl of bacterial suspension was directly transferred to each well of a 96-well plate, with three replicates conducted for each group. For SPA0, SPLA1, and SPLA2, 200 μl of bacterial suspension was transferred into the first dilution row of a 96-well plate with supplemented antibiotics at a desired starting concentration, whereas 100 μl of bacterial suspension was transferred to the rest dilution rows. […] Three replicates were applied for each group. These well plates were incubated in a shaker at 37° C. and 200 rpm for 18 hours followed by OD600 measurement by a plate reader. After MICs recording for each group, the well plates were continuously incubated in the shaker for 3 days in total. On Day 4, 200 μl of bacterial sample from each group was collected, washed, and resuspended in 1×PBS at its original concentration used as new inoculum for the next passage following the same protocol as described above. Samples for SPA0, SPLA1, and SPLA2 groups were collected from wells supplemented with sub-MIC antibiotic. Samples for SPO, SPL1, and SPL2 groups were also collected from the well plates. […] Serial passage for all groups were performed for […] with 16 generations in total. Raman spectroscopy was then applied to monitor STX expression level in groups of interest after the entire serial passage experiment. The protocol is detailed as below: 100 μl of ˜400 μl stored bacterial culture was collected, spun down with the supernatant being removed, then resuspended into 5 μl 1×PBS as high-concentration bacterial solution (20 times concentrated). An aliquot (1 μl) was transferred and then sandwiched between two glass cover slides for STX quantification by resonance Raman spectroscopy.

For assay [3], the system named is MRSA NRS384 (MRSA USA 300). As to the kind of experiment: MIC by standard broth-dilution method. It counts as cell-based, S. aureus. The source says:
For each measurement, three independent replicates were applied.

Assay [4] has as its system stationary-phase MRSA. As to the kind of experiment: Time-killing assay in PBS with or without pulsed laser (CFU enumeration). It counts as cell-based, S. aureus. To be noted: for synergy of laser treatment with antibiotic against MRSA: 5 min laser plus 10 MIC antibiotic (FIG. 32). How it is done:
To quantify viable bacterial cells, CFU experiments were performed. 100 μl of sample analyte was transferred into a 96-well plate and then three or four ten-fold serial dilution achieved by transferring 20 μl bacterial culture into 180 μl 1×PBS in the next dilution row. After serial dilution, an aliquot (4 μl) from each well was spotted onto sterile TSA plates. After incubating the plates overnight (˜18 hours) at 37° C., the colonies were enumerated, and cell number was calculated in CFU/ml. For each CFU enumeration experiment, three independent replicates were applied.
Stationary-phase MRSA was prepared, washed and resuspended in 1×PBS at two-times of its original concentration. […] After laser treatment, the droplets were resuspended into 200 μl of 1×PBS (1:40 dilution) supplemented with antibiotics at different concentrations in a mini centrifuge tube (89166-278, VWR international). For example, daptomycin was added into MRSA solution after laser treatment at desired concentration of 0×MIC, 5×MIC, 10×MIC, 30×MIC, or 100×MIC supplemented with 50 μg/ml CaCl2). Corresponding groups without laser treatment were also conducted for comparison. These tubes were incubated within an orbital incubator (37° C., 200 rpm) for different incubation time. At each specific time point, 40 μl of aliquot from each group was transferred to a 96-well plate for follow-up CFU enumerating assay. In the case of tobramycin, additional antibiotic washing by 1×PBS was performed before the CFU experiment to avoid antibiotic interference. For time-killing assay in fresh human whole blood, similar protocol was followed as above, except that 1×PBS was replaced by fresh human whole blood and the initial stationary-phase MRSA solution was diluted by ten times with a concentration of ˜10^7 CFU/ml.

Assay [5] has as its system stationary-phase MRSA. As to the kind of experiment: Gentamicin-Texas red intracellular uptake assay. It counts as cell-based, S. aureus. The following applies: gentamicin conjugated with Texas red, confocal fluorescence. As for the experimental part:
To study laser-mediated intracellular uptake of gentamicin (a representative of aminoglycoside), gentamicin was conjugated with a fluorescent dye, Texas-red, to form gentamicin-Texas red. Briefly, 10 mg of gentamicin was dissolved into 1 ml of 0.1 M sodium bicarbonate buffer (58761-500ML, Sigma Aldrich). 10 mg/ml of Texas red-X succinimidyl ester (T6134, Thermo Fisher Scientific) was added to the gentamicin solution slowly drop by drop. Then the mixed solution was stirred at room temperature for 1 hour. Gentamicin-Texas red was purified through sufficient dialysis against 0.1 M sodium bicarbonate buffer in a dialysis sack (Slide-A-Lyzer G2 Dialysis Cassettes, 2K MWCo, 15 mL, 87719, Thermao Fisher Scientific), and harvested through lyophilization (Labconco). […] After treatment, bacterial droplet was collected into 985 μl of sterile 1×PBS, and then add 10 μl of 1 mg/ml Gentamicin-Texas red. Mixed solution was incubated at 37° C. for 30 min with a shaking speed of 200 rpm. After incubation, MRSA pellets were harvested through washing with sterile 1×PBS twice and then fixed with 10% formalin. […] Quantitative analysis of fluorescence emission intensity from individual MRSA cells was conducted and allocated among groups with different laser treatment time.

Assay [6] concerns STX in MRSA.
The mark [7] stands for this setting: read-out: MIC after 48-day serial passage, sub-MIC antibiotic alone.

`CC(=O)NC[C@H]1CN(c2ccc(N3CCOCC3)c(F)c2)C(=O)O1` [linezolid]: in assay [1], the “fold reduction of lowest concentration completely inhibiting MRSA growth within 18 hours, with laser treatment” value was found to be 8 fold. In addition, in assay [2], the “resistance development with laser treatment” value (from here on “resistance development”) was “resistance inhibition”.
Turning to `CC1COc2c(N3CCN(C)CC3)c(F)cc3c(=O)c(C(=O)O)cn1c23` (stereo not drawn) [Ofloxacin, ofloxacin], in assay [1], the “fold reduction of lowest concentration completely inhibiting MRSA growth within 18 hours, with laser treatment” value amounted to 2 fold. The MIC in assay [3] (Staphylococcus aureus) amounted to 0.5 µg/mL (≈ 1.38 µM); in assay [2] (setting [7]) it was 128 µg/mL (≈ 354 µM).
In assay [3] (Staphylococcus aureus), `CC[C@H]1OC(=O)[C@H](C)[C@@H](O[C@H]2C[C@@](C)(OC)[C@@H](O)[C@H](C)O2)[C@H](C)[C@@H](O[C@@H]2O[C@H](C)C[C@H](N(C)C)[C@H]2O)[C@](C)(O)C[C@@H](C)C(=O)[C@H](C)[C@@H](O)[C@]1(C)O` [Erythromycin] displayed an MIC of 64 µg/mL (≈ 87.2 µM).
For the compound `Cc1onc(-c2ccccc2)c1C(=O)N[C@@H]1C(=O)N2[C@@H]1SC(C)(C)[C@@H]2C(=O)O` [Oxacillin, oxacillin], in assay [1] (laser treatment plus oxacillin), the “antibiotic concentration re-sensitized by laser treatment” value is 1 µg/mL. For the same compound, the “synergy of laser treatment with antibiotic against MRSA” value (shortened to “synergy of laser treatment”) in assay [4] is “synergy; also recorded: very obvious synergy”. In assay [3] (Staphylococcus aureus, MRSA NRS384 (MRSA USA 300), N = 3, read-out: MIC), the MIC came to 8 µg/mL (≈ 19.9 µM).
For `CO/N=C(\C(=O)N[C@@H]1C(=O)N2C(C(=O)O)=C(COC(C)=O)CS[C@H]12)c1csc(N)n1` [cefotaxime], the “synergy of laser treatment” value in assay [4] is listed as “very obvious synergy”; in assay [4] (listed as cetotaxine) it was “synergy”.
For gentamicin, the “synergy of laser treatment” value in assay [4] is “synergy; also recorded: very obvious synergy”. Also, in assay [4] (pulsed laser treatment combined with antibiotic at 10 MIC (FIG. 32)), the MRSA reduction result is on record as “more than 2 log”. Besides, the MIC in assay [3] (MRSA NRS384 (MRSA USA 300), N = 3) was 8 µg/mL. Further, the “intracellular uptake with laser treatment vs untreated” value in assay [5] is reported as “significantly more”. For the same compound, in assay [2], the “resistance development” value is “Delayed resistance development”.
In the case of ramoplanin, the “resistance development” value in assay [2] is recorded as “decreased resistance development is not shown”.
Still for that read-out and setting: as for `NC[C@H]1O[C@H](O[C@H]2[C@H](O)[C@@H](O[C@H]3O[C@H](CO)[C@@H](O)[C@H](N)[C@H]3O)[C@H](N)C[C@@H]2N)[C@H](N)C[C@@H]1O` [tobramycin], the entry is “resistance inhibition”.
As to `O=C(O)c1cn(C2CC2)c2cc(N3CCNCC3)c(F)cc2c1=O` [ciprofloxacin], the “synergy of laser treatment” value in assay [4] is given as “synergy; also recorded: very obvious synergy”. Further, in assay [2], the “resistance development” value was “no resistance”. In addition, the MIC in assay [2] (setting [7]) is 128 µg/mL (≈ 386 µM); in assay [2] (read-out: MIC over/after 48-day serial passage, sub-MIC antibiotic plus 10 min laser treatment) it was at most 2 µg/mL.
With `CN(C/C=C/c1ccccc1)Cc1cccc2ccccc12` [naftifine], the “second order bleaching constant τ2” value in assay [6] (naftifine-treated MRSA, τ1=∞, wild-type MRSA 0.16±0.01 s) turned out to be 0.39 ± 0.07 s. Moreover, in assay [6] (times longer than wild-type MRSA), the “τ2 of naftifine-treated MRSA relative to wild-type MRSA” value turned out to be 2.5 times.
